From PMC6364417, “Kinase inhibitor library screening identifies synergistic drug combinations effective in sensitive and resistant melanoma cells” (Journal of Experimental & Clinical Cancer Research : CR, 2019)

Columns and labels:
Experiment in all cases: Kinase inhibitor library screening, PrestoBlue cell viability, 1 or 10 μM, 72 h
[1] = tested on: IGR37 cells (parental); conditions: IGR37 Parental, 72 h; for Cell viability in kinase inhibitor library screening, IGR37 Parental, 1μΜ / Cell viability in kinase inhibitor library screening, IGR37 Parental, 10μΜ: in %
[2] = tested on: IGR37-XP cells (Vemurafenib-resistant); conditions: IGR37 XP, 72 h; for Cell viability in kinase inhibitor library screening, IGR37 XP, 1μΜ: in %
[3] = tested on: A375-XP cells (Vemurafenib-resistant); conditions: A375 XP, 72 h
[4] = tested on: IGR37-GP cells (Dabrafenib-resistant); conditions: IGR37 GP, 72 h; for Cell viability in kinase inhibitor library screening, IGR37 GP, 1μΜ: in %
[5] = tested on: 501Mel-XP cells (Vemurafenib-resistant); conditions: 501Mel XP, 72 h; for Cell viability in kinase inhibitor library screening, 501Mel XP, 1μΜ / Cell viability in kinase inhibitor library screening, 501Mel XP, 10μΜ: in %
[6] = tested on: 501Mel-GP cells (Dabrafenib-resistant); conditions: 501Mel GP, 72 h; for Cell viability in kinase inhibitor library screening, 501Mel GP, 1μΜ / Cell viability in kinase inhibitor library screening, 501Mel GP, 10μΜ: in %
[7] = tested on: 501Mel cells (parental); conditions: 501Mel Parental, 72 h; for Cell viability in kinase inhibitor library screening, 501Mel Parental, 1μΜ / Cell viability in kinase inhibitor library screening, 501Mel Parental, 10μΜ: in %
Method in brief: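 Cells are treated with each inhibitor at 1 or 10 μM, incubated 72 h, then PrestoBlue reagent is added and the plate is read. Data are normalised to untreated cells.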

[8] = tested on: A375 cells (parental); conditions: A375 Parental, 72 h
[9] = tested on: A375-GP cells (Dabrafenib-resistant); conditions: A375 GP, 72 h

SMILES	Cell viability in kinase inhibitor library screening, IGR37 Parental, 1μΜ ([1]; 1μΜ)	Cell viability in kinase inhibitor library screening, IGR37 Parental, 10μΜ ([1]; 10μΜ)	Cell viability in kinase inhibitor library screening, IGR37 XP, 10μΜ ([2]; 10μΜ)	Cell viability in kinase inhibitor library screening, IGR37 XP, 1μΜ ([2]; 1μΜ)	Cell viability in kinase inhibitor library screening, A375 XP, 1μΜ ([3]; 1μΜ)	Cell viability in kinase inhibitor library screening, A375 XP, 10μΜ ([3]; 10μΜ)	Cell viability in kinase inhibitor library screening, IGR37 GP, 10μΜ ([4]; 10μΜ)	Cell viability in kinase inhibitor library screening, IGR37 GP, 1μΜ ([4]; 1μΜ)	Cell viability in kinase inhibitor library screening, 501Mel XP, 1μΜ ([5]; 1μΜ)	Cell viability in kinase inhibitor library screening, 501Mel XP, 10μΜ ([5]; 10μΜ)	Cell viability in kinase inhibitor library screening, 501Mel GP, 1μΜ ([6]; 1μΜ)	Cell viability in kinase inhibitor library screening, 501Mel GP, 10μΜ ([6]; 10μΜ)	Cell viability in kinase inhibitor library screening, 501Mel Parental, 1μΜ ([7]; 1μΜ)	Cell viability in kinase inhibitor library screening, 501Mel Parental, 10μΜ ([7]; 10μΜ)	Cell viability in kinase inhibitor library screening, A375 Parental, 10μΜ ([8]; 10μΜ)	Cell viability in kinase inhibitor library screening, A375 Parental, 1μΜ ([8]; 1μΜ)	Cell viability in kinase inhibitor library screening, A375 GP, 1μΜ ([9]; 1μΜ)	Cell viability in kinase inhibitor library screening, A375 GP, 10μΜ ([9]; 10μΜ)	further results
CO[C@H]1C[C@@H]2CC[C@@H](C)[C@@](O)(O2)C(=O)C(=O)N2CCCC[C@H]2C(=O)O[C@H]([C@H](C)C[C@@H]2CC[C@@H](O)[C@H](OC)C2)CC(=O)[C@H](C)/C=C(\C)[C@@H](O)[C@@H](OC)C(=O)[C@H](C)C[C@H](C)/C=C/C=C/C=C/1C [Rapamycin (Sirolimus)]	79.9	81.5	49.9%	96.0	79.4	83.3	76.7%	92.2	56.7	42.7	69.9	59.4	84.7	77.5	72.3	80.2	80.8	79.4	–
CNC(=O)c1cc(Oc2ccc(NC(=O)Nc3ccc(Cl)c(C(F)(F)F)c3)c(F)c2)ccn1 [Regorafenib (BAY 73-4506)]	–	–	–	–	–	–	–	–	–	–	–	–	–	–	–	–	–	–	cell viability (kinase inhibitor library screening) ([1]; 1μΜ): 94.8%; cell viability (kinase inhibitor library screening) ([1]; 10μΜ): 42.7%; cell viability (kinase inhibitor library screening) ([2]; 1μΜ): 88.9%; cell viability (kinase inhibitor library screening) ([2]; 10μΜ): 14.8%; cell viability (kinase inhibitor library screening) ([3]; 1μΜ): 58.9%; cell viability (kinase inhibitor library screening) ([3]; 10μΜ): 18.1%; cell viability (kinase inhibitor library screening) ([4]; 1μΜ): 89.9%; cell viability (kinase inhibitor library screening) ([4]; 10μΜ): 47.7%; cell viability (kinase inhibitor library screening) ([5]; 1μΜ): 93.6%; cell viability (kinase inhibitor library screening) ([5]; 10μΜ): 47.1%; cell viability (kinase inhibitor library screening) ([6]; 1μΜ): 96.7%; cell viability (kinase inhibitor library screening) ([6]; 10μΜ): 48.3%; cell viability (kinase inhibitor library screening) ([7]; 1μΜ): 93.5%; cell viability (kinase inhibitor library screening) ([7]; 10μΜ): 53.2%; cell viability (kinase inhibitor library screening) ([8]; 10μΜ): 32.8%; cell viability (kinase inhibitor library screening) ([8]; 1μΜ): 96.5%; cell viability (kinase inhibitor library screening) ([9]; 1μΜ): 48.9%; cell viability (kinase inhibitor library screening) ([9]; 10μΜ): 22.9%
COc1cc(OC)c(/C=C/S(=O)(=O)Cc2ccc(OC)c(NCC(=O)O)c2)c(OC)c1 [Rigosertib (ON-01910)]	11.0	15.4	35.5%	55.9	18.3	9.8	61.1%	62.5	9.5	14.7	16.6	20.3	20.3	26.0	15.2	18.2	19.7	16.9	–
